Assay results published in patent US10104891B2 (priority 2014, dated 2018).

Key:
Type in all cases: in vivo
Phytophthora infestans = assay: whole plant or invertebrate; settings: for control value (Test 1): tomato late blight, control value vs untreated section; for pest or weed control at 4 µg/mL: Phytophthora infestans, in Solanum lycopersicum, 96 h, read-out: control value (Test 1)
[1] = test system: Pseudoperonospora cubensis; assay: Test 2: control effect against cucumber downy mildew; settings: control value vs untreated section; for pest or weed control at 4 µg/mL: Pseudoperonospora cubensis, 120 h
Procedure: (§1) A 10% wettable powder created according to the Pharmaceutical Formulation Example 1 was diluted with a Tween20 solution prepared to a concentration of 1/5000, then the compound of formula [1] was prepared to a concentration of 4 ppm. Further, the compound of formula [1] in Test 4 was adjusted to a concentration of 1,000 ppm.
<Test 2 Test of Control Effect Against Cucumber Downy Mildew>
(§2) Test suspension was applied to cucumber at the 2 leaf stage (species: Sagami hanjiro) in an amount of 20 ml per seedling. One day after application, zoospore suspension of Pseudoperonospora cubensis adjusted to a concentration of 1.0×10^4 units/ml was misted/inoculated, and the seedlings were incubated in a moist chamber adjusted to 22° C. for 16 hr. Then, the onset of the disease was induced in the chamber, and the lesion area rate on the leaves 5 days after inoculation was investigated to compute the control value using the formula below. control value={1−onset area rate of the leaves that were applied the test agent/onset area rate of untreated leaves}×100 Computational formula of the control value: […]

Plasmopara viticola = assay: Test 3: control effect against grape downy mildew; settings: control value vs untreated section; for pest or weed control at 4 µg/mL: Plasmopara viticola, 120 h
Procedure: as §1
<Test 3 Test of Control Effect Against Grape Downy Mildew>
as §2, with “grape seedling” for “cucumber at the 2 leaf stage”, “Neomuscat)” for “Sagami hanjiro)”, “Plasmopara viticola” for “Pseudoperonospora cubensis”

Compound | control value (Test 1) (Phytophthora infestans) | control value (Test 2) [1] | control value (Test 3) (Plasmopara viticola) | pest or weed control at 4 µg/mL (Phytophthora infestans) [%] | pest or weed control at 4 µg/mL [1] [%] | pest or weed control at 4 µg/mL (Plasmopara viticola) [%]
Cc1cc(C)n(CC(=O)N2CCC(c3nc(C4OCc5cccc(OS(C)(=O)=O)c5CO4)cs3)CC2)n1 (stereo not drawn) [Compound 1-105] | 100 | 100 | 100 | – | – | –
Cc1cc(C(F)(F)F)nn1CC(=S)N1CCC(c2nc(C3OCc4cccc(OS(C)(=O)=O)c4CO3)cs2)CC1 (stereo not drawn) [Compound 1-106] | 100 | 100 | 100 | – | – | –
Cc1cc(C(F)(F)F)nn1CC(=S)N1CCC(c2nc(C3OCc4c(F)ccc(OS(C)(=O)=O)c4CO3)cs2)CC1 (stereo not drawn) [Compound 1-107] | 100 | 100 | 100 | – | – | –
COc1ccc(OS(C)(=O)=O)c2c1COC(c1csc(C3CCN(C(=O)Cn4nc(C(F)(F)F)cc4Cl)CC3)n1)OC2 (stereo not drawn) [Compound 1-108] | 100 | 100 | 100 | – | – | –
COc1ccc(OS(C)(=O)=O)c2c1COC(c1csc(C3CCN(C(=O)Cn4nc(Cl)cc4Cl)CC3)n1)OC2 (stereo not drawn) [Compound 1-109, 4-[4-(6-methoxy-9-methylsulfonyloxy-1,5-dihydro-3H-2,4-benzodioxepin-3-yl)-2-thiazolyl]-1-[2-(3,5-dichloro-1H-pyrazole-1-yl)acetyl]piperidine] | – | – | – | 100 | 100 | 100
COc1ccc(Cl)c2c1COC(c1csc(C3CCN(C(=O)Cn4nc(C(F)(F)F)cc4C(F)(F)F)CC3)n1)OC2 (stereo not drawn) [Compound 1-110] | 100 | 100 | 100 | – | – | –
O=C(Cn1nc(C(F)(F)F)cc1C(F)(F)F)N1CCC(c2nc(C3OCc4cccc(Br)c4CO3)cs2)CC1 (stereo not drawn) [Compound 1-111] | 100 | 100 | 100 | – | – | –
COc1ccc(Cl)c2c1COC(c1csc(C3CCN(C(=O)Cn4nc(C(F)F)cc4C(F)F)CC3)n1)OC2 (stereo not drawn) [Compound 1-112] | 100 | 100 | 100 | – | – | –
O=C(Cn1nc(C(F)(F)F)cc1C(F)(F)F)N1CCC(c2nc(C3OCc4cccc([N+](=O)[O-])c4CO3)cs2)CC1 (stereo not drawn) [Compound 1-114] | 100 | 100 | 100 | – | – | –
COc1ccc(OS(C)(=O)=O)c2c1COC(c1csc(C3CCN(C(=O)Cn4nc(C)cc4C)CC3)n1)OC2 (stereo not drawn) [Compound 1-115, 4-[4-(6-methoxy-9-methylsulfonyloxy-1,5-dihydro-3H-2,4-benzodioxepin-3-yl)-2-thiazolyl]-1-[2-[3,5-dimethyl-1H-pyrazole-1-yl]acetyl]piperidine] | – | – | – | 100 | 100 | 100
CS(=O)(=O)Oc1ccc(Cl)c2c1COC(c1csc(C3CCN(C(=O)Cn4nc(C(F)F)cc4C(F)F)CC3)n1)OC2 (stereo not drawn) [Compound 1-116] | 100 | 100 | 100 | – | – | –
COc1ccc(OS(C)(=O)=O)c2c1COC(c1csc(C3CCN(C(=O)Cn4nc(C(F)(F)F)cc4C(F)(F)F)CC3)n1)OC2 (stereo not drawn) [Compound 1-117] | 100 | 100 | 100 | – | – | –
CS(=O)(=O)Oc1ccc(Cl)c2c1COC(c1csc(C3CCN(C(=O)Cn4nc(C(F)(F)F)cc4C(F)(F)F)CC3)n1)OC2 (stereo not drawn) [Compound 1-118] | 100 | 100 | 100 | – | – | –
CS(=O)(=O)Oc1cccc2c1COC(c1csc(C3CCN(C(=O)Cn4nc(C(Cl)Cl)cc4C(Cl)Cl)CC3)n1)OC2 (stereo not drawn) [Compound 1-119, 4-[4-(6-methylsulfonyloxy-1,5-dihydro-3H-2,4-benzodioxepin-3-yl)-2-thiazolyl]-1-[2-[3,5-bis(dichloromethyl)-1H-pyrazole-1-yl]acetyl]piperidine] | – | – | – | 100 | 100 | 100
Cc1cc(C)n(CC(=O)N2CCC(c3nc(C4OCc5c(F)ccc(OS(C)(=O)=O)c5CO4)cs3)CC2)n1 (stereo not drawn) [Compound 1-120] | 100 | 100 | 100 | – | – | –
Cc1cc(OS(C)(=O)=O)c2c(c1C)COC(c1csc(C3CCN(C(=O)Cn4nc(C(F)F)cc4C(F)F)CC3)n1)OC2 (stereo not drawn) [Compound 1-121] | 100 | 100 | 100 | – | – | –
Cc1cc(OS(C)(=O)=O)c2c(c1C)COC(c1csc(C3CCN(C(=O)Cn4nc(C(F)(F)F)cc4C(F)(F)F)CC3)n1)OC2 (stereo not drawn) [Compound 1-122] | 100 | 100 | 100 | – | – | –
CS(=O)(=O)Oc1ccc(Br)c2c1COC(c1csc(C3CCN(C(=O)Cn4nc(C(F)(F)F)cc4C(F)(F)F)CC3)n1)OC2 (stereo not drawn) [Compound 1-123, 4-[4-(6-bromo-9-methylsulfonyloxy-1,5-dihydro-3H-2,4-benzodioxepin-3-yl)-2-thiazolyl]-1-[2-[3,5-bis(trifluoromethyl)-1H-pyrazole-1-yl]acetyl]piperidine] | – | – | – | 100 | 100 | 100
CS(=O)(=O)Oc1ccc([N+](=O)[O-])c2c1COC(c1csc(C3CCN(C(=O)Cn4nc(C(F)F)cc4C(F)F)CC3)n1)OC2 (stereo not drawn) [Compound 1-124] | 100 | 100 | 100 | – | – | –
CS(=O)(=O)Oc1ccc(Br)c2c1COC(c1csc(C3CCN(C(=O)Cn4nc(C(F)F)cc4C(F)F)CC3)n1)OC2 (stereo not drawn) [Compound 1-125] | 100 | 100 | 100 | – | – | –
O=C(Cn1nc(C(F)F)cc1C(F)F)N1CCC(c2nc(C3OCc4cccc([N+](=O)[O-])c4CO3)cs2)CC1 (stereo not drawn) [Compound 1-126] | 100 | 100 | 100 | – | – | –
Cc1cc(C(F)(F)F)nn1CC(=O)N1CCN(c2nc(C3OCc4cccc(OS(C)(=O)=O)c4CO3)cs2)CC1 (stereo not drawn) [Compound 1-127] | 100 | 100 | 100 | – | – | –
CS(=O)(=O)Oc1ccc([N+](=O)[O-])c2c1COC(c1csc(C3CCN(C(=O)Cn4nc(C(F)(F)F)cc4C(F)(F)F)CC3)n1)OC2 (stereo not drawn) [Compound 1-128] | 100 | 100 | 100 | – | – | –
CS(=O)(=O)Oc1ccc(I)c2c1COC(c1csc(C3CCN(C(=O)Cn4nc(C(F)(F)F)cc4C(F)(F)F)CC3)n1)OC2 (stereo not drawn) [Compound 1-129, 4-[4-(6-iodo-9-methylsulfonyloxy-1,5-dihydro-3H-2,4-benzodioxepin-3-yl)-2-thiazolyl]-1-[2-[3,5-bis(trifluoromethyl)-1H-pyrazole-1-yl]acetyl]piperidine] | – | – | – | 100 | 100 | 100
CS(=O)(=O)Oc1ccc(I)c2c1COC(c1csc(C3CCN(C(=O)Cn4nc(C(F)F)cc4C(F)F)CC3)n1)OC2 (stereo not drawn) [Compound 1-130] | 100 | 100 | 100 | – | – | –
CS(=O)(=O)Oc1c(F)ccc2c1COC(c1csc(C3CCN(C(=O)Cn4nc(C(F)(F)F)cc4C(F)(F)F)CC3)n1)OC2 (stereo not drawn) [Compound 1-131, 4-[4-(7-fluoro-6-methylsulfonyloxy-1,5-dihydro-3H-2,4-benzodioxepin-3-yl)-2-thiazolyl]-1-[2-[3,5-bis(trifluoromethyl)-1H-pyrazole-1-yl]acetyl]piperidine] | – | – | – | 100 | 100 | 100
CS(=O)(=O)Oc1c(F)ccc2c1COC(c1csc(C3CCN(C(=O)Cn4nc(C(F)F)cc4C(F)F)CC3)n1)OC2 (stereo not drawn) [Compound 1-132, 4-[4-(7-fluoro-6-methylsulfonyloxy-1,5-dihydro-3H-2,4-benzodioxepin-3-yl)-2-thiazolyl]-1-[2-[3,5-bis(difluoromethyl)-1H-pyrazole-1-yl]acetyl]piperidine] | – | – | – | 100 | 100 | 100
COc1ccc(C)c2c1COC(c1csc(C3CCN(C(=O)Cn4nc(C(F)(F)F)cc4C(F)(F)F)CC3)n1)OC2 (stereo not drawn) [Compound 1-134] | 100 | 100 | 100 | – | – | –
COc1cccc2c1COC(c1csc(C3CCN(C(=O)Cn4nc(C(F)(F)F)cc4C)CC3)n1)OC2 (stereo not drawn) [Compound 1-135] | 100 | 100 | 100 | – | – | –
O=C(Cn1nc(C(F)F)cc1C(F)F)N1CCC(c2nc(C3OCc4cccc(OC(F)F)c4CO3)cs2)CC1 (stereo not drawn) [Compound 1-136] | 100 | 100 | 100 | – | – | –
